Results reported in patent US20160060687A1, “METHODS AND COMPOSITIONS TO IDENTIFY, QUANTIFY, AND CHARACTERIZE TARGET ANALYTES AND BINDING MOIETIES” (CDI Laboratories, Inc., priority 2014, published 2016).
“Also recorded” adds a separate entry of the source.

System: MPG2
Experiment: Protein-DNA DAPPL binding assay on a protein microarray of two human TF proteins and BSA, ligation products detected by PCR
Details: array of two human TF proteins and BSA; Sanger sequencing, six of six clones as expected
Text: A DAPPL approach was applied to establish a comprehensive screen for protein-DNA interactions. As illustrated in FIG. 19A and FIG. […] Meanwhile, a pool of DNA polynucleotides was synthesized that each contains eight random nucleotides with a CpG in the middle and two fixed sequences on both sides. After a double-stranded DNA pool was made with a Klenow reaction, bacterial enzyme SssI is used to methylate the CpG, followed by treatment with a T4 DNA polymerase to generate a 5′-overhang. This pool of 65,536 species was then incubated on the TF array, washed, and the captured DNA fragments were ligated to the address polynucleotides. In each ligated sequence, a mCpG containing 8-mer sequence is now connected to an address oligo representing the TF protein that has captured this 8-mer in the binding assay. Therefore, it is an “all-to-all” screening approach. […] The ligated products were then recovered from the slide and PCR-amplified. […] Bioinformatics analyses were performed to determine whether there was any enrichment of consensus motifs for each TF protein.
After cloning the PCR fragments, Sanger sequencing was performed to determine the PCR-amplified sequences. Six of six sequenced clones gave the expected sequences from the ligation on the array.

For “M62: methylated DNA motif M62 (SEQ ID NO: 10) used as probe on the TF protein microarray (DNA ATATGCATCG; methylated DNA motif, methylated positions not given here)”, the “capture of the methylated DNA motif by the TF spot (recovery of ligation products by PCR)” value was “captures; also recorded: successfully recovered using a PCR reaction only from the expected TF spot”.
